Measured values published in patent publication US5905073A, “Use of 2-hydroxy-5-phenylazobenzoic acid derivatives as colon cancer chemopreventative and chemotherapeutic agents” (priority 1996, dated 1999).
Entries after “also recorded” stand apart in the source; their conditions may differ. Where two headings read alike, the source gives them in different places.

How the values were obtained:
HRT-18 cells = assay: Growth inhibition of HRT-18 colon cancer cells; assay type: cell-based; settings: Homo sapiens; HRT-18, Table IV; read-out: IC50 for inhibition of human colon cancer cell proliferation
Procedure: (§1) For dose response studies a sensitive dye binding assay was adapted which allows simultaneous assay of multiple agents and doses in 96-well plates. Cells were plated and allowed to adhere for 24 hours prior to addition of the study drug. Cell densities were then determined 4 days later by fixation of the wells and staining with Sulforhodamine B dye.

LS174T cells [1] = assay: Proliferation of LS174T colon cancer cells, Coulter Counter cell count; assay type: cell-based, human
Procedure: (§2) Cells were grown in Dulbeccos Modified Eagle medium supplemented with 10% calf serum in an atmosphere of 5% CO2 at 37° C. For growth experiments, cells were seeded into 24-well tissue culture dishes (2 cm^2 /well) at a density of 20,000 cells/well and allowed to attach for 12 hours. The growth medium was then changed and replaced with fresh media containing the test drugs.
(§3) The test drugs were dissolved in tissue culture media at the desired concentration and added to individual wells. To determine the number of cells per well, media was removed and the cells washed with phosphate buffered saline solution. The cells were then incubated 15 minutes with trypsin-EDTA solution until detached. The detached cells were then removed from the wells and counted using a Coulter Counter (Model ZBI).
(§4) The cell numbers shown in Table I are the average of triplicate culture wells.

colonic inflammation = settings: several animal models of colonic inflammation; cited from earlier work
[2] = cited from earlier work
human colon cancer cells = assay: Colon cancer cell proliferation in vitro, comparative statements; assay type: cell-based
Procedure: as §2, §3, §4
For dose response studies a sensitive dye binding assay was adapted which allows simultaneous assay of multiple agents and doses in 96-well plates. Cells were plated and allowed to adhere for 24 hours prior to addition of the study drug. Cell densities were then determined 4 days later by fixation of the wells and staining with Sulforhodamine B dye. Optical density of the stained cultures was then determined using a 96-well plate reader at 495 nm (Skehan et al. (1990) J. Natl. Cancer Inst. 82:1107-1112).
Two such oxidation products, gentisic acid (Dull et al. (1987) Biochem. Pharmacol. 36:2467-2472) and 5-nitro-salicylate (Laffafian et al. (1991) Biochem. Pharmacol. 42:1869-1874) have been elucidated.

HT-29 cells [3] = assay: Proliferation of HT-29 colon cancer cells, Coulter Counter cell count; assay type: cell-based, human
Procedure: as §2, §3, §4

[4] = rat; cited from earlier work
ulcerative colitis = settings: active and quiescent ulcerative colitis; cited from earlier work
[5] = system: aberrant crypts induced by azoxymethane (AOM); assay: Inhibition of azoxymethane-induced aberrant crypt formation (induction study); assay type: in vivo, rat (F344); settings: in drinking water, distal 7-8 cm of colon
Excerpt: Aberrant crypts were originally described in carcinogen-induced colonic mucosa as crypts of "increased size, thicker epithelial lining and increased pericryptal zones" (Bird et al. (1989) Cancer Surv. 8:189-200). […] The anti-tumor activity of several of these agents has been confirmed in longer term AOM animal studies. The aberrant crypt model is, therefore, an ideal in vivo assay for efficacy of balsalazide and metabolites.
Inhibition of Aberrant Crypt Induction.
Four groups of 5 male F344 rats were used. Animals were 6-8 weeks of age at the start of dosing with a starting weight range within +/-20% of the overall mean. The expected response to AOM treatment from published studies is the formation of 100-140 aberrant crypts per animal (Wargovich et al. (1992) J. Cell. Biochem. 16G:51-54). […]
Body weights were recorded twice weekly, and water consumed by each cage of animals measured twice weekly. Consumption is calculated as average ml/animal/cage.
For aberrant crypt analysis, animals were sacrificed under CO2 euthanasia at the end of either three weeks or five weeks of dosing. […] After a saline rinse, the number of foci of aberrant crypts was scored by counting under a microscope at 40-100× magnification. The length of the colonic tissue was also measured. […]

[6] = system: rectal mucosal reactive oxygen metabolite production; settings: cited from earlier work
HT-29 cells [7] = assay: Dose response growth inhibition of HT-29 cells, Sulforhodamine B dye binding assay; assay type: cell-based, human; settings: Homo sapiens
Procedure: as §1

LS174T cells [8] = assay: Dose response growth inhibition of LS174T cells, Sulforhodamine B dye binding assay; assay type: cell-based, human; settings: Homo sapiens
Procedure: as §1

LoVo cells = assay: Growth inhibition of LoVo colon cancer cells; assay type: cell-based; settings: Homo sapiens, Table IV, read-out: IC50 for inhibition of human colon cancer cell proliferation
Procedure: as §1

In the case of `O=C(O)CCNC(=O)c1ccc(/N=N/c2ccc(O)c(C(=O)O)c2)cc1` [Balsalazide], the IC50 (HRT-18 cells) is reported as 3.88 mM, the “Cell No. on Day 10” value (LS174T cells [1]; 10 mM, average of triplicate wells) is reported as 24925 and the activity at 10000 µM (LS174T cells [1]; Homo sapiens, 240 h, read-out: % of Control Cells) is reported as 3.51%. For the same compound, the “anti-inflammatory activity in animal models” value (colonic inflammation) was “possesses anti-inflammatory activity”, the absorption ([2]; oral balsalazide) was “virtually unabsorbed through the upper GI tract” and the “drug reaching the colon intact” value ([2]; oral) was 99%. The “inhibition of colon cancer cell growth (in words)” value (human colon cancer cells) was “potently inhibitory; also recorded: greater inhibitory response at lower concentrations than did 5-ASA”, the “relative sensitivity of LS174T and HT-29 cells” value (human colon cancer cells; LS174T vs HT-29) was “identical between both cell types” and the “Cell No. on Day 10” value (HT-29 cells [3]; HT-29, 10 mM, average of triplicate wells) was 47500. For the same compound, the activity at 10000 µM (HT-29 cells [3]; Homo sapiens, HT-29, 240 h, read-out: % of Control Cells) was 3.6%, the maximum tolerated dose [4] was > 12,000 mg/kg/day and the “anti-inflammatory activity in ulcerative colitis patients” value (ulcerative colitis) was “possesses anti-inflammatory activity”. The “inhibition in the average number of aberrant crypts” value ([5]; week 1) was 61.8%, the “inhibition in the average number of aberrant crypts” value ([5]; week five) was 58.1% and the “reduction of rectal mucosal reactive oxygen metabolite production” value ([6]; rectal biopsies, ulcerative colitis patients) was “over 90%”. For the same compound, the “effectiveness relative to taurine, ascorbate or N-acetyl cysteine” value ([6]; similar concentrations) was “more effective”, the IC50 (HT-29 cells [7]; HT-29, Table IV, read-out: IC50 for inhibition of human colon cancer cell proliferation) was 5.71 mM and the IC50 (HT-29 cells [7]; HT-29, text (FIG. 5), read-out: IC50) was 5.7 mM. The IC50 (LS174T cells [8]; Table IV, read-out: IC50 for inhibition of human colon cancer cell proliferation) was 5.29 mM, the IC50 (LS174T cells [8]; text (FIG. 5), read-out: IC50) was 5.2 mM and the IC50 (LoVo cells) was 5 mM.
